Measurements taken from patent publication US5484725A, “Norbornane type ester hydrolase from Acetobacter pasteurianus” (Shionogi & Co., Ltd., priority 1993, dated 1996).

Assays:
[1] = tested on: norbornane type ester hydrolase; assay: Optically selective hydrolysis of (±)-exo-norbornane type esters by purified enzyme, optical resolution GC; assay type: biochemical, Acetobacter pasteurianus ATCC 12873; settings: 1% ester, 30° C., 30 minutes
Method: Various kinds of the (±)-exo-norbornane type esters respectively comprising formyl, acetyl, propionyl, n-butyryl or isobutyryl as the acyl R in formula I were allowed to come in contact with an enzyme solution, respectively as a substrate. Each of the obtained products was extracted with an equal volume of chloroform. The extract was analyzed by gas chromatography using a column for optical resolution (produced by J & W Scientific). (-)-Norborneol was selectively produced in all the extracts. […] In detail, referring to FIG. 1, (+)-(1S, 2S, 4R)-exo-norbornyl acetate is hydrolysed to the corresponding (-)-norborneol by the use of the present enzyme. The obtained (-)-norborneol can be converted to (+)-d-norcamphor by oxidation. The remaining (-)-(1R, 2R, 4S)-exo-norbornyl acetate can be hydrolysed to the corresponding (+)-norborneol by the use of an alkali. The obtained (+)-norborneol can be converted to (-)-d-norcamphor by oxidation.
The purified enzyme obtained in Example 1 was allowed to come in contact with various kinds of 1% (±)-exo-norbornane type esters respectively including formyl, acetyl, propionyl, n-butyryl and isobutyryl as the acyl R in formula I. The reaction was conducted at 30° C. for 30 minutes. The resultant was extracted with an equal volume of chloroform. The extract was analyzed by gas chromatography using a column for optical resolution (produced by J & W Scientific). As is apparent from the results shown in Table 2, (-)-norborneol was enantio-selectively produced from any of the esters.

[2] = tested on: E. coli JM109 transformed by using the plasmid pUNA-Hf; assay: Hydrolysis of (±)-exo-norbornyl acetate by transformant E. coli JM109 with pUNA-Hf; assay type: cell-based; settings: 1% substrate, 30° C., 10 minutes
Method: E. coli JM109 was transformed by using the plasmid pUNA-Hf. […] Then, the transformant was mixed with a 1% (±)-exo-norbornyl acetate mixture and allowed to stand at 30° C. for 10 minutes. The resulting mixture was analyzed by the method described in item 5 of Example 2. […] Thus, the optical selectivity was confirmed to be as high as that of the enzyme derived from Acetobacter pasteurianus obtained in Example 1.

[3] = tested on: E. coli JM103 including the plasmid pUNA-Hf; assay: Optically selective deacetylation of exo-norbornyl acetate by E. coli JM103/pUNA-Hf cell suspension; assay type: cell-based; settings: 1% substrate, 30° C., 15 minutes
Method: (±)-Exo-norbornyl acetate used as a substrate was optically selectively deacetylated by E. coli JM103 including the plasmid pUNA-Hf as follows. The bacterial cells were collected from the cultured broth of E. coli JM103/pUNA-Hf as mentioned above by centrifugation, and suspended in an equal volume of a 0.1M phosphate buffer (pH 7.0). Then, 1% (±)-exo-norbornyl acetate was added to 1.5 ml of the obtained suspension, and the reaction was conducted at 30° C. for 15 minutes. The resultant reaction mixture was analyzed by the method described in item 5 of Example 2.

[4] = tested on: norbornane type ester hydrolase; assay: Effect of inhibitors on the enzyme (pNPA method); assay type: biochemical, Acetobacter pasteurianus ATCC 12873; settings: 5 mM inhibitor, phosphate buffer pH 7.0, 30° C., 2 hours, then pNPA method
Method: The present enzyme was allowed to stand in phosphate buffers respectively including various inhibitors (5 mM) at pH 7.0 for 2 hours. Then, the activity of the enzyme was measured by the method described in item 3.
The above-mentioned activity measurement was performed with regard to 0.5 ml of the enzyme solution of 0.1M phosphate buffer (pH 7.0) containing 5 mM of one of the following inhibitors: ethylenediaminetetraacetic acid (EDTA), phenylmethylsulfonylfluoride (PMSF), N-tosyl-L-phenylalanyl chloromethyl ketone (TPCK), N-tosyl-L-lysyl chloromethyl ketone (TLCK), diisopropyl fluorophosphate (DFP), N-ethylmaleimide and iodoacetic acid. The enzyme solutions, including the respective inhibitors, were allowed to stand at 30° C. for 2 hours.

SMILES	Produced norborneol (+)-isomer [1] [mg/mL]	Produced norborneol (-)-isomer [1] [mg/mL]	(+)-exo-norborneol produced [2] [mg/mL]	(-)-exo-norborneol produced [2] [mg/mL]	(+)-exo-norborneol produced [3] [mg/mL]	(-)-exo-norborneol produced [3] [mg/mL]	inhibition of the enzyme by inhibitor [4]
CC(=O)O[C@H]1C[C@@H]2CC[C@H]1C2 (relative stereo) [Acetyl, (±)-exo-norbornyl acetate]	0.19	2.48	0.15	1.68	0.15	1.91	–
O=CO[C@H]1C[C@@H]2CC[C@H]1C2 (relative stereo) [Formyl]	0.15	1.49	–	–	–	–	–
O=S(=O)(F)Cc1ccccc1 [PMSF, phenylmethylsulfonylfluoride]	–	–	–	–	–	–	completely inhibited

Now from value to compound, other results behind:

Produced norborneol (+)-isomer [1] [mg/mL]	Produced norborneol (-)-isomer [1] [mg/mL]	SMILES	(+)-exo-norborneol produced [2] [mg/mL]	(-)-exo-norborneol produced [2] [mg/mL]	(+)-exo-norborneol produced [3] [mg/mL]	(-)-exo-norborneol produced [3] [mg/mL]	inhibition of the enzyme by inhibitor [4]
0.45	3.39	CCC(=O)O[C@H]1C[C@@H]2CC[C@H]1C2 (relative stereo) [Propionyl]	–	–	–	–	–
0.69	2.76	CC(C)C(=O)O[C@H]1C[C@@H]2CC[C@H]1C2 (relative stereo) [isobutyryl]	–	–	–	–	–
0.29	2.30	CCCC(=O)O[C@H]1C[C@@H]2CC[C@H]1C2 (relative stereo) [n-butyryl]	–	–	–	–	–
